Laboratory results taken from patent US4452982A, “Process for the preparation of nitrogen-bridgehead condensed pyrimidine compounds, and pharmaceutical compositions containing them” (Chinoin Gyogyszer es Vegyeszeti Termekek Gyara R.T., priority 1979, dated 1984).

Tests used:
[1] = test system: allergic reactions; assay: PCA test-method (Ovary), antiallergic activity; format: in vivo; conditions: for ED50: iv
Method: The test is carried out by the PCA test-method (Ovary: J. Immun. 81, 355 (1958)) and the Church-test (British J. Pharm. 46, 56-66 (1972); Immunology 29, 527-534 (1975)) and for comparison disodium chromoglycate is used.

[2] = test system: allergic symptoms; conditions: antiasthmatic agent, cited from earlier work

SMILES	ED50 [1]	oral activity / route of effectiveness ([1]; oral vs. intravenous, conclusion from Table I)	effect by inhaler (background statement) ([2]; inhaler)	oral activity (background statement) ([2]; orally)
CC1CC=C(Nc2ccccc2)c2ncc(C(=O)O)c(=O)n21 (stereo not drawn) [9-anilino-6-methyl-4-oxo-6,7-dihydro-4H-pyrido[1,2-a]pyrimidine-3-carboxylic acid]	1.3 µmol/kg			
Cc1ccccc1NC1=CCC(C)n2c1ncc(C(=O)O)c2=O (stereo not drawn) [6-methyl-9-(2-methylphenylamino)-4-oxo-6,7-dihydro-4H--pyrido[1,2-a]pyrimidine-3-carboxylic acid]	5.4 µmol/kg			
O=C(O)c1cc(=O)c2c(OCC(O)COc3cccc4oc(C(=O)O)cc(=O)c34)cccc2o1 [disodium chromoglycolate]	1 µmol/kg	effective only when administered intravenously	produces the desired effect only by using an inhaler	not active orally
